Source: article PMC2587100 (Biochemistry, 2008)

What was measured:
Type in all cases: biochemical
[1] = molecular target: T1, alkaline phosphatase (AP) (Escherichia coli, UniProt P00634, R188S); assay: […]-based hydrolysis assay, kcat/KM
[2] = molecular target: T2, alkaline phosphatase (AP) (Escherichia coli, UniProt P00634, R188K); assay: […]-based hydrolysis assay, kcat/KM
[3] = molecular target: T1, alkaline phosphatase (AP); assay: continuous absorbance assay of hydrolysis, kcat/KM
[4] = molecular target: T2, alkaline phosphatase (AP); assay: continuous absorbance assay of hydrolysis, kcat/KM
[5] = molecular target: T1, alkaline phosphatase (AP); assay: steady-state hydrolysis by purified enzyme, kcat/KM
[6] = molecular target: alkaline phosphatase (AP) (Escherichia coli, UniProt P00634); assay: as above
Sequence of alkaline phosphatase (AP) (Escherichia coli, UniProt P00634) (P00634 22-471): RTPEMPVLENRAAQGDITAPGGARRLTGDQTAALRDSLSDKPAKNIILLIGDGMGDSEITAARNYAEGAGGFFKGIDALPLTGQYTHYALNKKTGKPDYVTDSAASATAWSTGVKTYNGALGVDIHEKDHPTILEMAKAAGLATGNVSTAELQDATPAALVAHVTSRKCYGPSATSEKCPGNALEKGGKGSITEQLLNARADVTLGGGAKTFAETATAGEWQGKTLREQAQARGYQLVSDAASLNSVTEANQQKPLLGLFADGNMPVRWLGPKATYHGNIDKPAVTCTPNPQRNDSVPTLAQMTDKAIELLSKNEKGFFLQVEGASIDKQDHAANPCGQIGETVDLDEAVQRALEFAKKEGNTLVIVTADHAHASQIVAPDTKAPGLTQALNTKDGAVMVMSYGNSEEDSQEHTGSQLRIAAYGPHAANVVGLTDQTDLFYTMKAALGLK

[7] = molecular target: T2, alkaline phosphatase (AP); assay: as above

T2 sequence (P00634 23-471 R188K): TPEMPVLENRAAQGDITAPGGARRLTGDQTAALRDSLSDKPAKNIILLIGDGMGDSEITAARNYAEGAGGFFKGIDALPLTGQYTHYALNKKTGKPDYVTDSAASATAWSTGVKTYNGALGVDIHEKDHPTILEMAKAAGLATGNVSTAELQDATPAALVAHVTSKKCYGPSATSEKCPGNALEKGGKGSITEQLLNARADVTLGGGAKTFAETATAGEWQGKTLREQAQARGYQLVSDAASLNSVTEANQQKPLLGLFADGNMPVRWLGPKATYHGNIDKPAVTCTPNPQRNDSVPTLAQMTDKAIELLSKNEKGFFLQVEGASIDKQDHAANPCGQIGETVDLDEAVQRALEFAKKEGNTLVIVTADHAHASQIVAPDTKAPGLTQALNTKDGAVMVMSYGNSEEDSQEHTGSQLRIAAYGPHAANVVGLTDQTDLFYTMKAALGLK
T1 sequence (P00634 23-471 R188S): as the sequence (P00634 23-471 R188K) above, with K166S counted along it

## CCOP(=O)(O)O [EtOP, ethyl phosphate]
[1]
  EtOP / kcat/KM: 24 M⁻¹ s⁻¹
[2]
  EtOP / kcat/KM: 20 M⁻¹ s⁻¹

## O=[N+]([O-])c1ccc(OP(=O)(O)O)cc1 [pNPP, p-Nitrophenyl phosphate]
[3]
  pNPP / kcat/KM (M^-1s^-1): 1.0 × 10^5 M^−1s^−1
[4]
  pNPP / kcat/KM (M^-1s^-1): 1.9 × 10^5 M^−1s^−1

## O=[N+]([O-])c1ccc(OP(O)(O)=S)cc1 [pNPPS, p-Nitrophenyl O-phosphorothioate]
[5]
  kcat/KM (M^-1s^-1) / pNPPS: 2.6 × 10^3 M^−1s^−1
[6]
  kcat/KM (M^-1s^-1) / pNPPS: 5.5 × 10^3 M^−1s^−1
[7]
  kcat/KM (M^-1s^-1) / pNPPS: 1.6 × 10^4 M^−1s^−1
